Earlier results as cited in US9827234B1, “Dose-dumping resistant controlled release dosage form” (OSMOTICA KERESKEDELMI ES SZOLGALTATO KFT, priority 2017, dated 2017).

Assays:
[1] = 5 mg 3× daily, rapid release tablet

## COC(=O)C(c1ccccc1)C1CCCCN1 (centres unmarked) [Methylphenidate, methyl 2-phenyl-2-(piperidin-2-yl)acetate]
[1]
  Cmax: 4.2 ± 1.0 ng/mL
  Tmax: 6.5 ± 1.8 h
  T½: 3.0 ± 0.5 h
Consuming alcohol (ethanol), Patrick et al. 2007
  enhance the bioavailability of MPH: up to 40%
In vivo
  plasma half-life: 2 to 3 h
